# Experiments:
# [1] = Body weight in aged female rats; type: in vivo; conditions: at 7-1/2 months, 5 or 7 ng 2-MD/kg orally each day
# Text: (§1) 48 retired female breeder rats of 12 months of age were obtained from the Harlan Sprague-Dawley Company. Upon arrival, the animals were ovariectomized or sham-operated. These animals were housed in individual hanging wire cages and provided water ad libitum. Food consumption was restricted to 19-21 g/day. Animals were maintained on a purified diet described by Suda et al (J. Nutr. 1970) which contained 0.47% calcium and 0.3% phosphorus. In addition, these animals received supplements of vitamin A, E, D, and K as described in the Suda paper. One half of the animals received each day 0.1 ml of Wesson Oil while the remaining one-half of the animals received orally the 0.1 ml of Wesson Oil containing 5 or 7 ng/2-MD/kg body weight. The animals were monitored weekly for body weight, general health and survival. These animals were followed for 7.5 months.
# calcium from bone = conditions: compared to 1α,25-dihydroxyvitamin D3; cited from earlier work
# [2] = tested on: aged, ovariectomized female rats; experiment: Survival of aged ovariectomized female rats given 2-MD orally each day for 7.5 months; type: in vivo, rat
# Description: Thus, the experiment was carried out as follows:
# as §1
smiles,measurement,setting,value
"C=C1[C@H](O)CC(=C/C=C2\CCC[C@]3(C)[C@@H]([C@@H](C)CCCC(C)(C)O)CC[C@@H]23)C[C@H]1O [2-MD, 2-methylene-19-nor-20(S)-1α,25-dihydroxyvitamin D3]",Body Weight Final,[1],382 ± 10 g
same,ability to mobilize calcium from bone,calcium from bone,very high activity
same,survival and general health over the entire period,"[2]; 5 or 7 ng 2-MD/kg body weight orally each day, 7.5 months",survived the entire period and were in good health
same,survival rate,"[2]; aged, ovariectomized female rats, oral 2-MD each day, 7.5 months",100%
same,Survival Ratio #premature deaths/total # animals,"[2]; ovariectomized or sham-operated retired female breeder rats, 12 months of age, 5 or 7 ng 2-MD/kg body weight orally each day in Wesson Oil, followed for 7.5 months",0/24

# From US7718636B2, “Use of 2-methylene-19-nor-20(S)-1alpha,25dihydroxy vitamin d3 to inhibit mammary tumor” (Wisconsin Alumni Research Foundation, priority 2003, dated 2010)
